Where two headings read alike, the source gives them in different places.

The results in this text go back to patent US20240245677A1, “SELECTED COMPOUNDS FOR TARGETED DEGRADATION OF BRD9” (C4 THERAPEUTICS, INC., priority 2021, published 2024).

In the experiment the target is T1, BRD9 (Homo sapiens, UniProt Q9H8M2).
T1 sequence (Q9H8M2 1-597): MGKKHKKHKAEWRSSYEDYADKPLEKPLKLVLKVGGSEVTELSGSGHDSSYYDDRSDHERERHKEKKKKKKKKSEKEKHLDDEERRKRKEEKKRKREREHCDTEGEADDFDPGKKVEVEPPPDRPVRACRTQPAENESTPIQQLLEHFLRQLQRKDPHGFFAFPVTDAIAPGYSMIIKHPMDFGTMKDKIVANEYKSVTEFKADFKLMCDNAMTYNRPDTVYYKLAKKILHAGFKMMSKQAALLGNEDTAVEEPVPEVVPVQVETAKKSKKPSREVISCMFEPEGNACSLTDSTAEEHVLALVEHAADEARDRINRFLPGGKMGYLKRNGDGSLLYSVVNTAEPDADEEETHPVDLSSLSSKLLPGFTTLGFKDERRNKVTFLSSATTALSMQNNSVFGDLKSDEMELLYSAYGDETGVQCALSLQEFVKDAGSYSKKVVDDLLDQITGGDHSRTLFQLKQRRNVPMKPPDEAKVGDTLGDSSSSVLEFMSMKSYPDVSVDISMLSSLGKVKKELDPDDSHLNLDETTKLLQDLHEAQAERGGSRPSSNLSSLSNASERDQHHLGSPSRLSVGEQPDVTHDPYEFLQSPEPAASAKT
The experiment can be described thus: BRD9 HiBiT degradation assay in 293T.166 (HEK293T.166) cells. The experiment is classed as cell-based. More on the design: endogenously expressing BRD9 with HiBiT fusion tag via CRISPR; host or cells: HEK293T.166 (293T.166, BRD9-HiBiT HEK293, LgBiT by lentivirus). Here is the method:
Selected compounds were tested in a BRD9 degradation assay using the HiBit Method.
Dulbecco's modified Eagle medium (DMEM) without phenol red and fetal bovine serum (FBS) were purchased from Gibco (Grand Island, NY, USA). Nano-Glo® HiBiT Lytic Assay System was purchased from Promega (Madison, WI, USA). 293T.166 (BRD9-HiBiT) cell line, endogenously expressing BRD9 with HiBiT fusion tag via CRISPR and ectopically expressing LgBiT tag, was purchased from Promega (Madison, WI, USA). 293T.167 (BRD7-HiBiT) cell line, endogenously expressing BRD7 with HiBiT fusion tag via CRISPR and ectopically expressing LgBiT tag, was purchased from Promega (Madison, WI, USA). 293T.92 (BRD4-HiBiT) cell line, endogenously expressing BRD4 with HiBiT fusion tag via CRISPR and ectopically expressing LgBiT tag, was generated in-house. Cell culture flasks and 384-well microplates were acquired from VWR (Radnor, PA, USA).
BRD9 degradation was determined based on quantification of luminescent signal using Nano-Glo® HiBiT Lytic Assay kit. Test compounds were added to the 384-well plate from a top concentration of 10 μM with 11 points, half log titration in duplicates. 293T.166 cells were added into 384-well plates at a cell density of 10,000 cells per well. The plates were kept at 37° C. with 5% CO2 for 2 hours. BRD7 and BRD4 degradation was similarly determined with 293T.167 cells and 293T.92 cells, respectively. The cells treated in the absence of the test compound were the negative control and the cells without Nano-Glo® HiBiT Lytic reagent were the positive control. After 2-hour incubation, Nano-Glo® HiBiT Lytic Assay reagents were added to the cells. Luminescence was acquired on EnVision® Multilabel Reader (Catalog No. 2104-0010, Perkin Elmer Inc., Dumfries, VA, USA).
This assay evaluates the degradation of BRD9 induced by treatment with Compound 1 or Compound 2 as measured by luminescence using Nano-Glo® HiBiT Lytic Assay System in HEK293 cells CRISPR-edited to endogenously express HiBiT tagged BRD9 and exogenously express LgBiT protein.
Nano-Glo® HiBiT Lytic Assay System was purchased from Promega (Catalog No. N3050, Madison, WI, USA). BRD9-HiBiT HEK293 cells were purchased from Promega (Catalog No. CS302348, Madison, WI, USA). The cells were maintained in Dulbecco's modified Eagle medium (DMEM) without phenol red (Catalog No. 12430112, ThermoFisher Scientific, Waltham, MA, USA) supplemented with 10% fetal bovine serum (FBS) (Catalog No. 16000-044, Gibco, Grand Island, NY, USA) at 37° C. in an atmosphere of 5% CO2 in air. The HiBiT polypeptide tag was introduced into the C-terminus of the endogenous BRD9 locus by CRISPR-Cas9 and the LgBiT protein was introduced via Lentiviral infection to produce the modified HEK293T.166 cell line. The HiBiT polypeptide and LgBiT protein allow reconstitution of NanoBiT enzyme in the cells. The Nano-Glo® HiBiT Lytic Substrate was then added and activated by the NanoBiT enzyme following cell lysis to produce a luminescent signal that is directly proportional to the amount of HiBiT-tagged BRD9.
The HEK293T.166 cells were routinely sub-cultured to maintain cell density between 30-80% confluence, not to exceed 20 passages. Cells were washed with PBS pH 7.4 (Catalog No. 10010049, ThermoFisher Scientific, Waltham, MA, USA), trypsinized for 5 minutes at 37° C., and resuspended in fresh growth media without phenol red. An aliquot was diluted 2× with Trypan Blue solution 0.4% (Catalog No. 15250061, ThermoFisher Scientific, Waltham, MA, USA) and cell count determined. Cell concentration was adjusted with growth media without phenol red to 3.3×10^5 cells/mL.
Compound 1 or Compound 2 was prepared by dissolving neat compounds in DMSO (Catalog No. D8418, Sigma-Aldrich, Inc., St. Louis, MO, USA) to generate 10 mM stock solution and stored at −20° C. […]
In general terms: With HiBiT, luminescence reflects the tagged protein that the partner subunit can reach.

In general, DC50 refers to the concentration at which degradation of the target reaches its halfway point. In general, Emax refers to the greatest response seen or fitted, relative to the assay's reference. Take `COc1cc(-c2cn(C)c(=O)c(C)c2C)cc(OC)c1CN1CC[C@H](N2CCN(c3ccc(N[C@H]4CCC(=O)NC4=O)cc3F)CC2)C(F)(F)C1` [Compound 1, (S)-3-((4-(4-((S)-1-(2,6-dimethoxy-4-(1,4,5-trimethyl-6-oxo-1,6-dihydropyridin-3-yl)benzyl)-3,3-difluoropiperidin-4-yl)piperazin-1-yl)-3-fluorophenyl)amino)-piperidine-2,6-dione]: the “% BRD9 Remaining Relative to Vehicle Control at 2 hr, Mean” value runs as follows: (0.010 nM) 92.3%; (0.032 nM) 96.4%; (0.100 nM) 91.6%; (0.315 nM) 86.4%; (0.997 nM) 76.7%; (3.15 nM) 51.6%. The “% BRD9 Remaining Relative to Vehicle Control at 2 hr, Mean” value runs as follows: (10.0 nM) 21.7%; (31.7 nM) 7.9%; (100 nM) 5.0%; (316 nM) 5.7%; (999 nM) 4.8%. For the same compound, the DC50 is less than 100 nM (293T.166 cells, 2.0 hours, read-out: HiBiT-Degradation 293T.166 BRD9 2.0 hours (DC50)) and 2 to 75 nM (summary statement, read-out: DC50 against BRD9). Moreover, for the setting “BRD9-HiBiT, 293T.166 cells, 2 hours, read-out: Mean Emax (%) ± SD”, the Emax turned out to be 4.14 ± 1.15%. Besides, the Dmax (HEK293T.166 cells, 2-hour treatment, read-out: maximal degradation of BRD9) is more than 95%.
